# Measured values taken from patent publication US11524966B1 (Valo Early Discovery, Inc., priority 2017, dated 2022).
# Target: T1, USP28 (His-tagged USP28-FL-mammalian) (Homo sapiens, UniProt Q96RU2)
# T1 construct: Expression of USP28 (1-1077)-TEV-6*His (pTT5 vector); made in house; host or cells: Expi293f cells (pTT5 vector)
# T1 sequence (Q96RU2 1-1077): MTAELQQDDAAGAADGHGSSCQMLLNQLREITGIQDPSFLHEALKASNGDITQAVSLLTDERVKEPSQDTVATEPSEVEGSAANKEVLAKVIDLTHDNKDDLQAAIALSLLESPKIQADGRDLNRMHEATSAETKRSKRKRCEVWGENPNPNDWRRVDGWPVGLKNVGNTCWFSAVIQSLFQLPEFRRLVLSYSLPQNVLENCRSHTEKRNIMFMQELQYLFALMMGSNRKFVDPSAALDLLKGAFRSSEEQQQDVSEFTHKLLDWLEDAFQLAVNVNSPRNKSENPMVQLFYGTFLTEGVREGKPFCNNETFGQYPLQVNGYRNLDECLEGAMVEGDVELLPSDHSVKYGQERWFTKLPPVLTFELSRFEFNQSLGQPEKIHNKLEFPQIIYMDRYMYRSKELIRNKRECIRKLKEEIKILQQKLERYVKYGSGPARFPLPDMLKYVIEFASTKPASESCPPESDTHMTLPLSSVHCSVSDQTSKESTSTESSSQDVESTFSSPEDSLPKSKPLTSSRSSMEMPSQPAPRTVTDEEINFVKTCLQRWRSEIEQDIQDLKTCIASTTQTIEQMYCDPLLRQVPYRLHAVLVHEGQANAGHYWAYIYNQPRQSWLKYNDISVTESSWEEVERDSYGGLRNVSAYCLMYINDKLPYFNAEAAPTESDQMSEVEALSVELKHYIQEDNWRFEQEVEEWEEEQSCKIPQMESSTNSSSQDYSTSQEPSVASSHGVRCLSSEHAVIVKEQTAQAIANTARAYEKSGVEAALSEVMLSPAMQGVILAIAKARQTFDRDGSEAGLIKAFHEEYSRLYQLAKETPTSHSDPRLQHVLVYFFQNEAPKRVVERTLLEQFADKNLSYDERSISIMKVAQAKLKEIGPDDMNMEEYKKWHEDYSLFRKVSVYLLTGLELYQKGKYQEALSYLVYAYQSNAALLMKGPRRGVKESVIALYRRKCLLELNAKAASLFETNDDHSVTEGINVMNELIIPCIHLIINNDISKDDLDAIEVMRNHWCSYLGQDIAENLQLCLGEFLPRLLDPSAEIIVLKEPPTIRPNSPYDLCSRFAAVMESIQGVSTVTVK
# Experiment: Ubiquitin-Rhodamine 110 Assay for USP28 Activity, Example A-1(a)
# Format: biochemical
# Details: Ubiquitin-Rhodamine 110 assay, Example A-1(a); read-out: USP28 A-1(a) IC50 range
# Summary of the method: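 Full-length His-tagged USP28 (1-1077, Expi293F-expressed; […]) was preincubated 30 min with compound (25 μM–1.3 nM, 10-point 3-fold) in 20 mM Tris-HCl pH 8.0, 3 mM BME, 0.03% BGG, 0.01% Triton X-100. Ub-Rh110 (25 nM) was then added for 45 min at room temperature, stopped with citric acid, and read by fluorescence (485/535 nm).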
row,SMILES,IC50 [nM]
1,"CO[C@@]1(C)CN(c2ccc3c(c2)OC[C@H](NC(=O)c2sc4nc(C)ccc4c2N)C3)C[C@@H]1N [Example 281, 3-amino-N-[(3R)-7-[(3S,4S)-4-amino-3-methoxy-3-methylpyrrolidin-1-yl]-3,4-dihydro-2H-1-benzopyran-3-yl]-6-methylthieno[2,3-b]pyridine-2-carboxamide]",1 to 50
2,"CO[C@]1(C)CN(c2ccc3c(c2)OC[C@H](NC(=O)c2sc4nc(C)ccc4c2N)C3)C[C@H]1N [Example 282, 3-amino-N-[(3R)-7-[(3R,4R)-4-amino-3-methoxy-3-methylpyrrolidin-1-yl]-3,4-dihydro-2H-1-benzopyran-3-yl]-6-methylthieno[2,3-b]pyridine-2-carboxamide]",1 to 50
3,"CO[C@@H]1[C@@H](N)CN(c2ccc3c(c2)OC[C@H](NC(=O)c2sc4nc(C)ccc4c2N)C3)[C@H]1C [Example 283, 3-amino-N-[(3R)-7-[(2S,3R,4S)-4-amino-3-methoxy-2-methylpyrrolidin-1-yl]-3,4-dihydro-2H-1-benzopyran-3-yl]-6-methylthieno[2,3-b]pyridine-2-carboxamide]",1 to 50
4,"CO[C@H]1[C@H](N)CN(c2ccc3c(c2)OC[C@H](NC(=O)c2sc4nc(C)ccc4c2N)C3)[C@@H]1C [Example 284, 3-amino-N-[(3R)-7-[(2R,3S,4R)-4-amino-3-methoxy-2-methylpyrrolidin-1-yl]-3,4-dihydro-2H-1-benzopyran-3-yl]-6-methylthieno[2,3-b]pyridine-2-carboxamide]",1 to 50
5,"Cc1ccc2c(N)c(C(=O)N[C@H]3CCc4nc(N5C[C@H](OC6CCC6)[C@@H](N)C5)ccc4C3)sc2n1 [Example 285, 3-amino-N-[(6S)-2-[(3S,4S)-3-amino-4-cyclobutoxypyrrolidin-1-yl]-5,6,7,8-tetrahydroquinolin-6-yl]-6-methylthieno[2,3-b]pyridine-2-carboxamide]",50 to 200
6,"CO[C@H]1CN(c2ccc3c(n2)OC[C@H](NC(=O)c2sc4nc(C)cc(C)c4c2N)C3)C[C@@H]1N [Example 286, 3-amino-N-[(3R)-7-[(3S,4S)-3-amino-4-methoxypyrrolidin-1-yl]-2H,3H,4H-pyrano[2,3-b]pyridin-3-yl]-4,6-dimethylthieno[2,3-b]pyridine-2-carboxamide]",50 to 200
7,"Cc1ccc2c(N)c(C(=O)N[C@H]3COc4nc(N5C[C@H](OC(C)C)[C@@H](N)C5)ccc4C3)sc2n1 [Example 287, 3-amino-N-[(3R)-7-[(3S,4S)-3-amino-4-(propan-2-yloxy)pyrrolidin-1-yl]-2H,3H,4H-pyrano[2,3-b]pyridin-3-yl]-6-methylthieno[2,3-b]pyridine-2-carboxamide]",200 to 2000
8,"Cc1ccc2c(N)c(C(=O)N[C@H]3COc4cc(N5CC[C@@H](N)C5)ccc4C3)sc2n1 [Example 288, 3-amino-N-[(3R)-7-[(3R)-3-aminopyrrolidin-1-yl]-3,4-dihydro-2H-1-benzopyran-3-yl]-6-methylthieno[2,3-b]pyridine-2-carboxamide]",1 to 50
9,"CO[C@]12CNC[C@H]1CN(c1ccc3c(c1)OC[C@H](NC(=O)c1sc4nc(C)ccc4c1N)C3)C2 [Example 291, N-[(3R)-7-[(3aS,6aS)-3a-methoxy-octahydropyrrolo[3,4-c]pyrrol-2-yl]-3,4-dihydro-2H-1-benzopyran-3-yl]-3-amino-6-methylthieno[2,3-b]pyridine-2-carboxamide]",1 to 50
10,"CO[C@@]12CNC[C@@H]1CN(c1ccc3c(c1)OC[C@H](NC(=O)c1sc4nc(C)ccc4c1N)C3)C2 [Example 292, N-[(3R)-7-[(3aR,6aR)-3a-methoxy-octahydropyrrolo[3,4-c]pyrrol-2-yl]-3,4-dihydro-2H-1-benzopyran-3-yl]-3-amino-6-methylthieno[2,3-b]pyridine-2-carboxamide]",1 to 50
11,"CO[C@H]1CN(c2ccc3c(n2)CC[C@H](NC(=O)c2sc4nc(C)cc(C)c4c2N)C3)C[C@@H]1NC(C)=O [Example 293, 3-amino-N-[(6S)-2-[(3S,4S)-3-acetamido-4-methoxypyrrolidin-1-yl]-5,6,7,8-tetrahydroquinolin-6-yl]-4,6-dimethylthieno[2,3-b]pyridine-2-carboxamide]",50 to 200
12,"Cc1ccc2c(N)c(C(=O)N[C@H]3COc4cc(N5C[C@H](C(F)F)[C@@H](N)C5)ccc4C3)sc2n1 [Example 294, 3-amino-N-[(3R)-7-[(3R,4S)-3-amino-4-(difluoromethyl)pyrrolidin-1-yl]-3,4-dihydro-2H-1-benzopyran-3-yl]-6-methylthieno[2,3-b]pyridine-2-carboxamide]",1 to 50
13,"Cc1ccc2c(N)c(C(=O)N[C@H]3COc4cc(N5C[C@@H](N)[C@H](C(F)F)C5)ccc4C3)sc2n1 [Example 295, 3-amino-N-[(3R)-7-[(3S,4R)-3-amino-4-(difluoromethyl)pyrrolidin-1-yl]-3,4-dihydro-2H-1-benzopyran-3-yl]-6-methylthieno[2,3-b]pyridine-2-carboxamide]",1 to 50
14,"COC[C@@H]1CN(c2ccc3c(n2)CC[C@H](NC(=O)c2sc4nc(C)cc(C)c4c2N)C3)C[C@@H]1N [Example 296, 3-amino-N-[(6S)-2-[(3R,4R)-3-amino-4-(methoxymethyl)pyrrolidin-1-yl]-5,6,7,8-tetrahydroquinolin-6-yl]-4,6-dimethylthieno[2,3-b]pyridine-2-carboxamide-]",50 to 200
15,"COC[C@H]1CN(c2ccc3c(n2)CC[C@H](NC(=O)c2sc4nc(C)cc(C)c4c2N)C3)C[C@H]1N [Example 297, 3-amino-N-[(6S)-2-[(3S,4S)-3-amino-4-(methoxymethyl)pyrrolidin-1-yl]-5,6,7,8-tetrahydroquinolin-6-yl]-4,6-dimethylthieno[2,3-b]pyridine-2-carboxamide]",1 to 50
16,"COC[C@@H]1CN(c2ccc3c(n2)CC[C@H](NC(=O)c2sc4nc(C)cnc4c2N)C3)C[C@@H]1N [Example 298, 7-amino-N-[(6S)-2-[(3R,4R)-3-amino-4-(methoxymethyl)pyrrolidin-1-yl]-5,6,7,8-tetrahydroquinolin-6-yl]-3-methylthieno[2,3-b]pyrazine-6-carboxamide]",200 to 2000
17,"COC[C@H]1CN(c2ccc3c(n2)CC[C@H](NC(=O)c2sc4nc(C)cnc4c2N)C3)C[C@H]1N [Example 299, 7-amino-N-[(6S)-2-[(3S,4S)-3-amino-4-(methoxymethyl)pyrrolidin-1-yl]-5,6,7,8-tetrahydroquinolin-6-yl]-3-methylthieno[2,3-b]pyrazine-6-carboxamide]",50 to 200
18,"COC[C@@H]1CN(c2nc3c(cc2F)C[C@@H](NC(=O)c2sc4nc(C)ccc4c2N)CC3)C[C@@H]1N [Example 300, 3-amino-N-[(6S)-2-[(3R,4R)-3-amino-4-(methoxymethyl)pyrrolidin-1-yl]-3-fluoro-5,6,7,8-tetrahydroquinolin-6-yl]-6-methylthieno[2,3-b]pyridine-2-carboxamide]",200 to 2000
19,"COC[C@H]1CN(c2nc3c(cc2F)C[C@@H](NC(=O)c2sc4nc(C)ccc4c2N)CC3)C[C@H]1N [Example 301, 3-amino-N-[(6S)-2-[(3S,4S)-3-amino-4-(methoxymethyl)pyrrolidin-1-yl]-3-fluoro-5,6,7,8-tetrahydroquinolin-6-yl]-6-methylthieno[2,3-b]pyridine-2-carboxamide]",> 2000
20,"Cc1ccc2c(N)c(C(=O)N[C@H]3COc4cc(N5C[C@@H]6CCN[C@@H]6C5)ccc4C3)sc2n1 [Example 304, N-[(3R)-7-[(3aS,6aS)-octahydropyrrolo[3,4-b]pyrrol-5-yl]-3,4-dihydro-2H-1-benzopyran-3-yl]-3-amino-6-methylthieno[2,3-b]pyridine-2-carboxamide]",1 to 50
21,"Cc1ccc2c(N)c(C(=O)N[C@H]3COc4cc(N5C[C@H]6CCN[C@H]6C5)ccc4C3)sc2n1 [Example 305, N-[(3R)-7-[(3aR,6aR)-octahydropyrrolo[3,4-b]pyrrol-5-yl]-3,4-dihydro-2H-1-benzopyran-3-yl]-3-amino-6-methylthieno[2,3-b]pyridine-2-carboxamide]",1 to 50
22,"Cc1ccc2c(N)c(C(=O)N[C@H]3COc4cc(N5CCC6(CNC6)C5)ccc4C3)sc2n1 [Example 306, 3-amino-N-[(3R)-7-{2,6-diazaspiro[3.4]octan-6-yl}-3,4-dihydro-2H-1-benzopyran-3-yl]-6-methylthieno[2,3-b]pyridine-2-carboxamide]",1 to 50
